According to US20030119719A1, “Use of endothelin conjugates in therapy, new endothelin conjugates, agents that contain the latter, and process for their production” (priority 1996, published 2003):

How the values were obtained:
common carotid artery = assay: Local application via administration catheter in the denuded common carotid artery, dynamic scintigraphy and autoradiography; conditions: for course of the locally administered activity at the administration site after blood flow is restored: examination period of 1 hour, dynamic scintigrams, right common carotid artery
Excerpt: b) Local Application of the Tc-99m Complex of NH2-Asp-Gly-Gly-Cys-Gly-Cys-Phe-(D-Trp)-Leu-Asp-Ile-Ile-Trp-OH as well as Tc-99m-pertechnetate in the Common Carotid Artery of White New Zealand Rabbits
In anesthetized white New Zealand rabbits (3.5 kg), the right common carotid artery was opened up. A 2 F balloon catheter (from the Baxter Company) was inserted cranially through a cut, and a vascular area approximately 5 cm long was denuded twice with 0.9% saline after the catheter was inflated. Then, an administration catheter (coronary perfusion/infusion catheter, dispatch 3.0, Baxter Company) was fed to the above-denuded area. […] Then, the catheter was removed, and the blood flow after closure of the common carotid artery dextra was restored using a suture. Dynamic scintigrams were prepared over a period of 1 hour with the aid of a commercial gamma camera. Then, the animals were sacrificed, both carotids were removed, and an autoradiography was prepared.

arteriosclerotic plaque = assay: In vivo and in vitro concentration in WHHL rabbits (gamma camera imaging, autoradiography of the aorta); conditions: 2 mCi (1 ml) via an ear vein
Experimental: In Vivo and In Vitro Concentration of the ^99mTc-Complex of […] in WHHL Rabbits 2 mCi (1 ml) of the […]Tc-complex that is produced according to 5a) is administered to an anesthetized WHHL rabbit (Rompun/Ketavet 1:2) via an ear vein. WHHL rabbits have a high LDL level in the blood because of a deficient or defective LDL receptor and therefore create spontaneously arteriosclerotic vascular alterations. During the test period of 5 hours after the administration, static images of various exposure times and of various positions were produced with a gamma camera ([…]). 5 hours after the administration, the rabbit was sacrificed, and both an autoradiography of the aorta and a Sudan III coloring were carried out.

Compound	site of accumulation after being flushed from the vessel wall (common carotid artery; anterior summation scintigram 0-1 hour after local administration (FIG. 1))	course of the locally administered activity at the administration site after blood flow is restored (common carotid artery)	course of the locally administered activity at the administration site after blood flow is restored (common carotid artery; listed as Tc-99m-pertechnetate)	time at which arteriosclerotic plaque in the area of the aortic arch could be visualized in vivo (arteriosclerotic plaque)
[O]=[99Tc](=[O])(=[O])[O-] [Tc-99m pertechnetate]	accumulates in the salivary glands as well as the thyroid	flushed from the vessel directly after the blood flow was regenerated	flushed from the vessel wall immediately after the blood flow is restored	
^99mTc Complex of Asp-Gly-Gly-Cys-Gly-Cys-Phe-(D-Trp)-Leu-Asp-Ile-Ile-Trp				10 minutes p.i.
